Laboratory results from publication PMC3552554 (Thrombosis and haemostasis, 2010).
Non-standard residues stand in square brackets, D forms with d. Residues, ends and D or L forms follow the SMILES beside them. Oic = O=C(O)[C@@H]1C[C@@H]2CCCC[C@@H]2N1; Phe(4-Me) = Cc1ccc(C[C@H](N)C(=O)O)cc1

Key:
[1] = 3 mg/ml in drinking water; cited from earlier work
[2] = administered intravenously; cited from earlier work
[3] = cited from earlier work
Tail bleeding time = type: in vivo, mouse; conditions: 3 mg/ml in drinking water, 5 days; n = 6; untreated 79±11 sec (n = 5), p = 0.38
human platelets = conditions: cited from earlier work
[4] = tested on: carotid artery thrombosis; conditions: cited from earlier work
thrombin [5] = biological target: T1, thrombin (Homo sapiens, UniProt P00734); conditions: cited from earlier work
thrombin [6] = conditions: direct thrombin inhibitor; cited from earlier work
PC3 tumor vessels = assay: PECAM; type: in vivo, nude mice; conditions: treated tumors, 3 mg/ml in drinking water; untreated 4.6 ± 2.1/hpf, p = 0.04
PC3-luc cells [7] = assay: Matrigel invasion assay, α-thrombin-stimulated; type: cell-based, human; conditions: 1 nM α-thrombin overnight, p = 0.02, 3 independent experiments
PC3-luc cells [8] = type: cell-based, human
thrombin [9] = biological target: T1, thrombin; assay: Plasma thrombin clotting time after oral treatment; type: in vivo, mouse; conditions: 3 mg/ml in drinking water
PC3-luc tumors = assay: PC3-luc tumor growth in nude mice; type: in vivo; conditions: oral 3 mg/ml in drinking water

## Cc1ccc(C[C@H](NC(=O)[C@@H](C)NC(=O)[C@@H]2CCCN2C(=O)[C@@H]2C[C@@H]3CCCC[C@@H]3N2C(=O)[C@H](N)CCCN=C(N)N)C(N)=O)cc1 [FM19, D-Arg-Oic-Pro, D-Ala-Phe(pMe)] (H-[dR][Oic]P[dA][Phe(4-Me)]-NH2)
[1]
  effect on mouse bleeding time: does not prolong the mouse bleeding time
[2]
  clearance: 8.2 ± 5.1 mL/min/kg
  t1/2α: 32.5 ± 2.9 min
[3]; 5 mg/ml steady-state oral
  plasma concentration: 173 ± 16 ng/mL
[3]; oral 3 mg/ml in the drinking water, after 5 days
  steady-state plasma concentration: 80 ng/mL
Tail bleeding time
  mean tail bleeding time: 92 ± 8 s

## Cc1ccc(C[C@H](NC(=O)[C@@H](C)NC(=O)[C@@H]2CCCN2C(=O)[C@@H]2C[C@@H]3CCCC[C@@H]3N2C(=O)[C@H](N)CCCNC(=N)N)C(N)=O)cc1 [FM19, D-Arg-Oic-Pro, D-Ala-Phe(pMe)] (H-[dR][Oic]P[dA][Phe(4-Me)]-NH2; N-terminus and C-terminus assumed)
Human platelets
  inhibits the threshold of α-thrombin-induced human platelet aggregation: 8.4 ± 4.7 µM
[4]; 3 mg/ml in drinking water, rose Bengal assay
  effect on time to carotid artery occlusion: does not prolong the mouse bleeding time or delay time to carotid artery occlusion
[4]; 5 mg/ml in drinking water
  effect on induced arterial thrombosis: delays induced arterial thrombosis
[4]; 5 mg/ml steady-state oral
  prolongation of the arterial thrombosis time: 2.7 fold
Thrombin [5]; 3 mg/ml in drinking water, after 5 days
  prolongation of the plasma thrombin clotting time: 1.4 times
Thrombin [5]; 5 mg/ml steady-state oral
  prolongation of the thrombin clotting time: 7.3 fold
Thrombin [6]
  Ki: 4.4 ± 2.4 µM
PC3 tumor vessels
  number of large vessels (> 10 microns): 1.4 ± 1.4 /hpf
PC3-luc cells [7]
  lowest concentration that significantly decreased the number of invading cells: 0.1 µM
PC3-luc cells [8]
  IC50: 15 µM
PC3-luc cells [8]; PC3-luc cells, 1 nM α-thrombin
  concentration that inhibited α-thrombin-induced calcium mobilization: 1 to 100 µM
Thrombin [9]; 5 days, n = 6, untreated 16±1 sec, p < 0.003
  thrombin clotting time: 22 ± 1 s
Thrombin [9]; treated vs untreated
  increase in the thrombin clotting time: 1.4 fold
PC3-luc tumors; 5 weeks, 10 tumors, untreated 0.82 ± 0.32 g, p = 0.04
  mean tumor weight: 0.5 ± 0.31 g
PC3-luc tumors; day 14 to day 28, bioluminescence normalized to day 7, untreated 0.55 ± 0.35, p = 0.038
  mean tumor growth rate: 0.26 ± 0.17 fold change/day
